The values that follow come from article PMC10941402, “Abcg2a is the functional homolog of human ABCG2 expressed at the zebrafish blood–brain barrier” (Fluids and Barriers of the CNS, 2024).

Data set [1] relates to T1, ABCG2.
T1 construct: HEK-293 R-5 HEK-293 stably expressing full-length human ABCG2 (R-5)
The data set can be described thus: cells. Also on record: species or system HEK-293; CellTiter-Glo growth inhibition of transporter-transfected HEK-293 cells, luminescence. The following applies: HEK293, 72 h; cells expressing human ABCG2. On the procedure: (§1) Trypsinized cells were plated at 5,000 cells/well in white opaque 96-well plates and allowed to adhere overnight. Drugs were then added, with each concentration tested in triplicate, and cells were incubated for 72 h. Cell growth was assessed using the CellTiter-Glo (Promega, Madison, WI) reagent, according to the manufacturer’s instructions. Luminescence was measured on a Tecan Infinite M200 Pro microplate reader (Tecan Group, Morrisville, NC, RRID:SCR_019033). […] Relative resistance (RR) values are the ratio of the GI50 values of the transporter transfected versus the empty vector-transfected HEK-293 cells. HEK-293 cells (ATCC, Manassas, VA, RRID:CVCL_0045) were transfected with empty pcDNA3.1 vector or with vector containing full-length abcg2a (NM_001042775), abcg2b (NM_001039066), abcg2c (XM_005156523) or abcg2d (NM_001042772) (all from Genscript, Piscataway, NJ), flanked by a C-terminal FLAG tag sequence. The R-5 cell line was generated as previously described from HEK-293 cells transfected with full-length ABCG2 [18]. Transfected cells were cultured at 37 °C and at 5% CO2 in EMEM (Quality Biological, Gaithersburg, MD) supplemented with 10% fetal calf serum, penicillin/streptomycin (Quality Biological) and 2 mg/ml G418 (Mediatech, Manassas, VA). To determine if zebrafish Abcg2a-d were able to confer resistance to known cytotoxic substrates of ABCG2, cytotoxicity assays were performed and quantified by the drug concentration that produces 50% cell growth inhibition (GI50). Among the zebrafish Abcg2 homologs, Abcg2a conferred the highest level of resistance to MLN7243 (a ubiquitin activating enzyme inhibitor), MLN4924 (NEDD8 activating enzyme inhibitor), and CUDC-101 (histone deacetylase and receptor tyrosine kinase inhibitor) (Fig. 2, Additional file 5: Table S1). Abcg2d conferred the least resistance to THZ 531 (CDK12/13 inhibitor), CUDC-101, and gedatolisib (an inhibitor of phosphatidylinositol-3-kinase (PI3K) and mammalian target of rapamycin (mTOR)). […] Abcg2b and Abcg2c often conferred similar levels of resistance to the same substates, as evidenced by results with MLN7243, MLN4924, THZ 531, CUDC-101 and gedatolisib.

Data set [2] relates to T2, Abcg2a.
T2 construct: HEK-293 HEK-293 stably expressing full-length FLAG-tagged zebrafish Abcg2a
The data set can be described thus: cells. Conditions: Homo sapiens, HEK293, 72 h; cells expressing zebrafish Abcg2a. Also on record: species or system HEK-293; CellTiter-Glo growth inhibition of transporter-transfected HEK-293 cells, luminescence. On the procedure: as §1

For data set [3], the system named is T3, Abcg2b.
T3 construct: HEK-293 HEK-293 stably expressing full-length FLAG-tagged zebrafish Abcg2b
The data set can be described thus: cells. Also on record: species or system HEK-293; CellTiter-Glo growth inhibition of transporter-transfected HEK-293 cells, luminescence. The following applies: Homo sapiens, HEK293, 72 h; cells expressing zebrafish Abcg2b. On the procedure:
as §1

The test system of data set [4] is T4, Abcg2c.
T4 construct: HEK-293 HEK-293 stably expressing full-length FLAG-tagged zebrafish Abcg2c
The data set can be described thus: cells. Conditions: Homo sapiens, HEK293, 72 h; cells expressing zebrafish Abcg2c. Also on record: species or system HEK-293; CellTiter-Glo growth inhibition of transporter-transfected HEK-293 cells, luminescence. On the procedure:
as §1

Data set [5] deals with T5, Abcg2d.
T5 construct: HEK-293 HEK-293 stably expressing full-length FLAG-tagged zebrafish Abcg2d
The data set can be described thus: cells. Also on record: species or system HEK-293; CellTiter-Glo growth inhibition of transporter-transfected HEK-293 cells, luminescence. The following applies: Homo sapiens, HEK293, 72 h; cells expressing zebrafish Abcg2d. On the procedure:
as §1

Data set [6] deals with T6, Empty vector.
T6 construct: HEK-293 HEK-293 stably transfected with empty pcDNA3.1
As to the kind of experiment: cells. Also on record: species or system HEK-293; CellTiter-Glo growth inhibition of transporter-transfected HEK-293 cells, luminescence. The following applies: Homo sapiens, HEK293, 72 h. On the procedure: as §1

Data set [7] concerns the target T7, Abcg2a (Danio rerio, UniProt Q2Q447).
T7 construct: homodimer
T7 sequence (Q2Q447 1-643): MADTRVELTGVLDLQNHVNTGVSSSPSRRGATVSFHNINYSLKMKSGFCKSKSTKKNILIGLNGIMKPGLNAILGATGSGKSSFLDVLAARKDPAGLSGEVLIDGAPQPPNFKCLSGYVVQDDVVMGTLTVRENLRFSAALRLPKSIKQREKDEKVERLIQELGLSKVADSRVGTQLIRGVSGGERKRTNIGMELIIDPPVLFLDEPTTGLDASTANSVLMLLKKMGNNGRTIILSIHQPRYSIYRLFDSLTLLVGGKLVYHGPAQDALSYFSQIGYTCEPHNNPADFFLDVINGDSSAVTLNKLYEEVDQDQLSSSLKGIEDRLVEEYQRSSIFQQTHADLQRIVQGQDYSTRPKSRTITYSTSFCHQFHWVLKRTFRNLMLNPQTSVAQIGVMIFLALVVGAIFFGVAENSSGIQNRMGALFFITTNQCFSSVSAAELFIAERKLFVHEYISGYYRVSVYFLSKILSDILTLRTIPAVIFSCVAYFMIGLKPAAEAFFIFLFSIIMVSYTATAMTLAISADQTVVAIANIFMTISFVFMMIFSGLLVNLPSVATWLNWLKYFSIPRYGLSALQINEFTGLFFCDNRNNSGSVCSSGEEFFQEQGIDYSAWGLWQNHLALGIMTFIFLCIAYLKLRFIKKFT
The data set can be described thus: flow cytometry efflux assay. It is filed as cell-based. Conditions: 5 µM substrate, 37 °C, with and without inhibitor. Background: In flow cytometry, cells or beads pass a laser one at a time.

The target of data set [8] is T8, ABCG2 (Homo sapiens, UniProt Q9UNQ0).
T8 construct: homodimer
T8 sequence (Q9UNQ0 1-655): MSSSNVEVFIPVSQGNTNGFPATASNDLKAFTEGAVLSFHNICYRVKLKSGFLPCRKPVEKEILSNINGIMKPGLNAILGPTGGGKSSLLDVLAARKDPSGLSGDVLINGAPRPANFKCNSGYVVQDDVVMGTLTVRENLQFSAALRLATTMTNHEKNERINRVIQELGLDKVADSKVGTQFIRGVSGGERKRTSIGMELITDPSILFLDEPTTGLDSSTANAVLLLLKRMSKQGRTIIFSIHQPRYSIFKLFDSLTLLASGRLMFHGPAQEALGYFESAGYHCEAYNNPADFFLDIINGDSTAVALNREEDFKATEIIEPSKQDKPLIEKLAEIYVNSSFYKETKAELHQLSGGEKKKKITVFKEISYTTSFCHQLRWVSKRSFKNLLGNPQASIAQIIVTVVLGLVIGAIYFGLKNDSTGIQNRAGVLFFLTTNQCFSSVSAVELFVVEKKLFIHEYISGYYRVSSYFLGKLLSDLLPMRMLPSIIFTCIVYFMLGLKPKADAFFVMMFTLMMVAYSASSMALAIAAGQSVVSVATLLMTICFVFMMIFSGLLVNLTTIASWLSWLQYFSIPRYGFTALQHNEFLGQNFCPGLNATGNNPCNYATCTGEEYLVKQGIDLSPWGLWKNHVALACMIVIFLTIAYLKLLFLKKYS
The data set can be described thus: flow cytometry efflux assay. It is filed as cell-based. The following applies: 5 µM substrate, 37 °C, with and without inhibitor.

Data set [9] concerns the target T9, Abcg2b (Danio rerio, UniProt Q2Q446).
T9 construct: homodimer
T9 sequence (Q2Q446 1-618): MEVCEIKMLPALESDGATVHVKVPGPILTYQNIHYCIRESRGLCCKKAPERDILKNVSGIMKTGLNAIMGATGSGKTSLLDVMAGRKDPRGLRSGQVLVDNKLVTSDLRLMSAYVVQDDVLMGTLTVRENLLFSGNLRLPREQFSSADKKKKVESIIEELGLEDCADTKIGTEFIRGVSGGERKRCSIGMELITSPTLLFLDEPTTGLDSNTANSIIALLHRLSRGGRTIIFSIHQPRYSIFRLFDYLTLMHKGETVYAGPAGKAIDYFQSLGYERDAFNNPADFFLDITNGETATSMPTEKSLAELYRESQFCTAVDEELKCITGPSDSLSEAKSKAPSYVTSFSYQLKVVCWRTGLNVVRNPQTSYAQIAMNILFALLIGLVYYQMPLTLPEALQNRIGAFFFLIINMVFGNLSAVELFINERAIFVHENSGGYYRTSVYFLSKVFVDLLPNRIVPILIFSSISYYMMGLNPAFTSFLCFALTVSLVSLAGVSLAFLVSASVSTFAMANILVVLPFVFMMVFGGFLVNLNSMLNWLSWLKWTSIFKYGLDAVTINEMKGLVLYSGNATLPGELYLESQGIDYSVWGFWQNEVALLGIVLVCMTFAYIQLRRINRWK
The data set can be described thus: flow cytometry efflux assay. It is filed as cell-based. Conditions: 5 µM substrate, 37 °C, with and without inhibitor.

Data set [10] has as its target T10, Abcg2c (Danio rerio, UniProt A0A8M2B3F2).
T10 construct: homodimer
T10 sequence (A0A8M2B3F2 1-640): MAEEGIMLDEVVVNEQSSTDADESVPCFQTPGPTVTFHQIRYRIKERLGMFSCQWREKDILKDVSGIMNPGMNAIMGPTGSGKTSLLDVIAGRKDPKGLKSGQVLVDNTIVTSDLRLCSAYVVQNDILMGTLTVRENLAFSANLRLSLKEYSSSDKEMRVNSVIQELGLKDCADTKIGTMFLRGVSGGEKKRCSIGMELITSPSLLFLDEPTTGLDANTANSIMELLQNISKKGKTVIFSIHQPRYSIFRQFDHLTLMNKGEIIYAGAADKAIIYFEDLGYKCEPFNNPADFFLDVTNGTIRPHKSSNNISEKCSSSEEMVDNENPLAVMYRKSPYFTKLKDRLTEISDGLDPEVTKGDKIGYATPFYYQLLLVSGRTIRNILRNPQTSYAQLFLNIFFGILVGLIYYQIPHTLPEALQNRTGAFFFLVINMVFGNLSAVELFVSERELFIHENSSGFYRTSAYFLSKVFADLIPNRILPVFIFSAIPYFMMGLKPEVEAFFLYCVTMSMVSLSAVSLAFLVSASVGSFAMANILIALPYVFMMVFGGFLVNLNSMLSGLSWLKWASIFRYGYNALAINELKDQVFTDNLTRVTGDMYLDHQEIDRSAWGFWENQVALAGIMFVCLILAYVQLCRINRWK
As to the kind of experiment: flow cytometry efflux assay. It is filed as cell-based. Conditions: 5 µM substrate, 37 °C, with and without inhibitor.

As to `C#Cc1cccc(Nc2ncnc3cc(OC)c(OCCCCCCC(=O)NO)cc23)c1` [CUDC-101], the GI50 (in general, the concentration that inhibits growth by half) was 11300 ± 2000 nM in data set [1]; 5420 ± 1400 nM in data set [2]; 2090 ± 190 nM in data set [3]; 1690 ± 290 nM in data set [4]; 1040 ± 260 nM in data set [5]; 780 ± 100 nM in [6].
Turning to `CN(C)C1CCN(C(=O)c2ccc(NC(=O)Nc3ccc(-c4nc(N5CCOCC5)nc(N5CCOCC5)n4)cc3)cc2)CC1` [Gedatolicib, gedatolisib], the GI50 in [1] amounted to 3840 ± 1500 nM; in data set [2], 1390 ± 190 nM; in data set [3] it was 4060 ± 1500 nM; in data set [4], 3260 ± 490 nM; in [5], 820 ± 500 nM; in data set [6], 200 ± 10 nM.
As for `NS(=O)(=O)OC[C@@H]1C[C@@H](n2ccc3c(N[C@H]4CCc5ccccc54)ncnc32)C[C@@H]1O` [MLN 4924], the GI50 stood at 7320 ± 1700 nM in data set [1]; 2440 ± 170 nM in data set [2]; 520 ± 52 nM in data set [3]; 487 ± 40 nM in [4]; 353 ± 190 nM in data set [5]; 420 ± 90 nM in [6].
Take `NS(=O)(=O)OC[C@H]1C[C@@H](Nc2ccnc3cc(-c4cccc(SC(F)(F)F)c4)nn23)[C@H](O)[C@@H]1O` [MLN 7243]: the GI50 in data set [1] worked out at 15400 ± 220 nM; in data set [3], 151 ± 51 nM; in data set [4] it was 200 ± 20 nM; in [5] it was 179 ± 23 nM; in data set [6] it was 69 ± 5 nM.
Consider `Cc1nc(Nc2[nH]nc3c2CN(C(=O)N[C@H](CN(C)C)c2ccccc2)C3(C)C)c2sccc2n1` [PF-3758309], for which the GI50 in data set [1] was 2360 ± 540 nM; in data set [2], 1260 ± 530 nM; in data set [3] it was 413 ± 150 nM; in [4], 1970 ± 710 nM; in data set [5], 1540 ± 650 nM; in data set [6] it was 68 ± 30 nM.
On to `CN(C)C/C=C/C(=O)Nc1ccc(C(=O)N2CCC[C@@H](Nc3ncc(Cl)c(-c4c[nH]c5ccccc45)n3)C2)cc1` [THZ 531], for which the 50% growth inhibitory concentration (GI50) in data set [1] was determined as 65900 ± 3700 nM; in data set [2] it was 18300 ± 3600 nM; in data set [3] it was 10500 nM; in data set [4], 11400 ± 1000 nM; in data set [5] it was 3990 ± 240 nM; in [6] it was 1290 ± 140 nM.
Take `O=C1c2c(O)ccc(O)c2C(=O)c2c(NCCNCCO)ccc(NCCNCCO)c21` [mitoxantrone]: in [7], the “flow cytometry efflux assay” value was “rightward inhibited peak shift for Abcg2a with mitoxantrone”.
In the case of `C=Cc1c(C)c2cc3nc(c4c5[nH]c(cc6nc(cc1[nH]2)C(C)=C6CC)c(C)c5C(=O)[C@@H]4C(=O)OC)[C@@H](CCC(=O)O)[C@@H]3C` [pheophorbide a], the “flow cytometry efflux assay” value in data set [8] is “ABCG2-expressing cells exhibit an increase in intracellular fluorescence”; in data set [9], “Pheophorbide a also appears to be a substrate for Abcg2b and Abcg2c”; in [10], “Pheophorbide a also appears to be a substrate for Abcg2b and Abcg2c”; in data set [7], “to a greater extent with pheophorbide a, indicating Abcg2a can efflux both substrates”.
